Test systems include SK-MEL-2 melanoma; M19-MEL melanoma; HCT-15 colon; SNB-75 CNS; TK-10 renal; CAKI-1 renal; SNB-19 CNS; SK-MEL-28 melanoma; MDA-N; BT-549 breast.
Holding throughout (test): NCI-60 cell line screen, 48 h

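Where inhibition never reached the appropriate level, the endpoint shown equals the highest concentration tested. Otherwise, values were interpolated linearly from a five-concentration, 48-hour dose response in 96-well plates. The concentration for 50% growth inhibition is given as GI50. TGI: total growth inhibition.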

With `O=C(NC(=Nc1ccccc1)SCSC(=Nc1ccccc1)NC(=O)c1ccco1)c1ccco1`, the TGI in the assay with SK-MEL-2 melanoma is greater than 100 µM; with M19-MEL melanoma it was greater than 100 µM; in the assay on HCT-15 colon, greater than 100 µM; with SNB-75 CNS it was 35.1 µM; in the assay on TK-10 renal, 70.4 µM; in the assay with CAKI-1 renal it was greater than 100 µM. Also, the TGI in the assay on SNB-19 CNS is 79.1 µM; with SK-MEL-28 melanoma, greater than 100 µM.
As for `CCc1ccccc1NC(=O)C(=O)C(C#N)c1ccccc1Cl` (stereo not given), the TGI is greater than 100 µM with SK-MEL-2 melanoma; greater than 100 µM in the assay with M19-MEL melanoma; greater than 100 µM in the assay on SNB-75 CNS; 6.31 µM in the assay on TK-10 renal; greater than 100 µM in the assay on SNB-19 CNS; greater than 100 µM with SK-MEL-28 melanoma.
Turning to `O=C1C=C(Nc2ccccc2C(=O)CC(=O)C(=O)Nc2ccc(Cl)cc2)c2ccccc2C1=O`, the TGI is 34.3 µM in the assay with SK-MEL-2 melanoma; 4.41 µM in the assay with M19-MEL melanoma; 24.8 µM in the assay with HCT-15 colon; 36 µM in the assay with SNB-75 CNS; greater than 100 µM in the assay with TK-10 renal; greater than 83.4 µM in the assay with CAKI-1 renal. Also, the TGI in the assay with SNB-19 CNS was 43.9 µM; in the assay on SK-MEL-28 melanoma, 35 µM.
For the compound `O=C(COc1ccccc1Cl)N1N=C(c2ccccc2)CC1(O)c1ccccc1` (stereo not given), the TGI is 36.8 µM in the assay on SK-MEL-2 melanoma; 41.6 µM in the assay with M19-MEL melanoma; 33.6 µM in the assay on HCT-15 colon; greater than 100 µM in the assay with SNB-75 CNS; 49.2 µM in the assay on TK-10 renal; 91.8 µM with CAKI-1 renal. Besides, the TGI was determined as 45.4 µM in the assay on SNB-19 CNS and 31.7 µM in the assay with SK-MEL-28 melanoma.
With `c1ccc2c(c1)SC(=C1Sc3ccccc3S1)S2`, the TGI in the assay on M19-MEL melanoma was greater than 100 µM; with HCT-15 colon, greater than 100 µM; in the assay on SNB-75 CNS, 73.3 µM; in the assay with TK-10 renal, greater than 100 µM; in the assay on CAKI-1 renal it was greater than 100 µM; in the assay with SNB-19 CNS, greater than 100 µM. Besides, the TGI in the assay on SK-MEL-28 melanoma is greater than 100 µM.
Regarding `OCC1OC2c3ccccc3COC2C1OCc1ccccc1` (stereo not given), the TGI with SK-MEL-2 melanoma, in the assay on M19-MEL melanoma, in the assay with HCT-15 colon, with SNB-75 CNS, in the assay on TK-10 renal and in the assay with CAKI-1 renal was greater than 100 µM each time. The TGI in the assay with SNB-19 CNS and in the assay on SK-MEL-28 melanoma was greater than 100 µM throughout.
As to `O=C1C(=c2ccc(=C3C(=O)c4ccc([N+](=O)[O-])cc4[N+]3=O)cc2)N([O-])c2cc([N+](=O)[O-])ccc21`, the GI50 with SK-MEL-2 melanoma, in the assay with M19-MEL melanoma, in the assay with HCT-15 colon, in the assay on CAKI-1 renal, in the assay with SNB-19 CNS and with SK-MEL-28 melanoma was greater than 100 µM in each case. The TGI with SK-MEL-2 melanoma was greater than 100 µM; in the assay on M19-MEL melanoma, greater than 100 µM; with HCT-15 colon it was greater than 100 µM; in the assay with SNB-75 CNS, 69.8 µM; in the assay with CAKI-1 renal it was greater than 100 µM; in the assay with SNB-19 CNS it was greater than 100 µM. In addition, the TGI in the assay on SK-MEL-28 melanoma was greater than 100 µM.
For `N#CC1C[C@@H]2CC3(CCC2CN1C(=O)c1ccccc1)OCCO3` (stereo not given in full), the TGI was greater than 21.6 µM in the assay with SK-MEL-2 melanoma; greater than 100 µM in the assay with M19-MEL melanoma; greater than 100 µM in the assay on HCT-15 colon; greater than 100 µM in the assay on SNB-75 CNS; greater than 100 µM in the assay on TK-10 renal; greater than 100 µM in the assay on CAKI-1 renal. Also, the TGI with SNB-19 CNS and in the assay on SK-MEL-28 melanoma was greater than 100 µM in each case. In addition, the GI50 with CAKI-1 renal is greater than 100 µM.
As to `[O-]/N=[N+](/[O-])C1CCCCC1=[N+]1CCOCC1` (stereo not given), the TGI in the assay with SK-MEL-2 melanoma, with M19-MEL melanoma, in the assay with TK-10 renal, in the assay with CAKI-1 renal, in the assay on SNB-19 CNS and in the assay on SK-MEL-28 melanoma was greater than 100 µM throughout.
Turning to `COc1cccc(C=O)c1C(=O)c1cc(O)ccc1O`, the TGI with SK-MEL-2 melanoma was greater than 100 µM; in the assay on M19-MEL melanoma, 79.8 µM; with HCT-15 colon it was 41.3 µM; in the assay on SNB-75 CNS it was greater than 100 µM; in the assay with TK-10 renal, greater than 56.7 µM; in the assay on CAKI-1 renal, greater than 57.4 µM. Also, the TGI was greater than 100 µM in the assay on SNB-19 CNS and greater than 61.4 µM with SK-MEL-28 melanoma.
For `Cc1cc(=O)[nH]c(CNC(=O)c2ccc3ccccc3c2)n1`, the TGI in the assay with SK-MEL-2 melanoma, with M19-MEL melanoma, in the assay on HCT-15 colon, in the assay on SNB-75 CNS, in the assay on TK-10 renal and in the assay with CAKI-1 renal was greater than 100 µM in each case. For the same compound, the TGI in the assay with SNB-19 CNS and in the assay with SK-MEL-28 melanoma was greater than 100 µM each time.
Take `O=[N+]([O-])c1cc(-c2nc(=S)[nH][nH]2)ccc1O`: the TGI in the assay on SK-MEL-2 melanoma is greater than 100 µM; with M19-MEL melanoma it was greater than 100 µM; in the assay on HCT-15 colon it was 31 µM; in the assay with TK-10 renal, greater than 100 µM; in the assay with CAKI-1 renal it was greater than 100 µM; in the assay on SNB-19 CNS it was greater than 100 µM. In addition, the TGI in the assay with SK-MEL-28 melanoma is greater than 100 µM.
With `COc1ccc2c(c1)[n+]([O-])c(-c1cccc(Cl)c1)c(N)[n+]2[O-]`, the TGI is greater than 100 µM with SK-MEL-2 melanoma; greater than 100 µM in the assay with M19-MEL melanoma; greater than 100 µM with CAKI-1 renal; greater than 100 µM in the assay with SNB-19 CNS; 83 µM in the assay with SK-MEL-28 melanoma.
In the case of `O=C(O)CN(c1ccccc1)S(=O)(=O)c1cccc([N+](=O)[O-])c1`, the TGI in the assay on SK-MEL-2 melanoma, in the assay on M19-MEL melanoma, in the assay with HCT-15 colon, in the assay on SNB-75 CNS, with TK-10 renal and in the assay on CAKI-1 renal was greater than 100 µM in each case. The TGI with SNB-19 CNS and in the assay on SK-MEL-28 melanoma was greater than 100 µM each time.
On to `O=C(C=Nc1ccccc1C(=O)[O-])c1cccs1.O=C(C=Nc1ccccc1C(=O)[O-])c1cccs1.[Ni+2]`, for which the TGI in the assay on SK-MEL-2 melanoma, in the assay with M19-MEL melanoma, in the assay with HCT-15 colon, with TK-10 renal, in the assay on CAKI-1 renal and in the assay on SNB-19 CNS was greater than 100 µM each time. In addition, in the assay with SK-MEL-28 melanoma, the TGI was greater than 100 µM. The GI50 with M19-MEL melanoma was 31.1 µM.
`COC(=O)C1CSC(c2csc(CCN)n2)=N1` (stereo not given): the TGI in the assay with SK-MEL-2 melanoma, in the assay with M19-MEL melanoma, with HCT-15 colon, with SNB-75 CNS, in the assay with TK-10 renal and in the assay with CAKI-1 renal was greater than 100 µM each time. Moreover, the TGI in the assay with SNB-19 CNS and with SK-MEL-28 melanoma was greater than 100 µM each time.
Consider `CC(=O)c1ccccc1NC(=O)C(=O)C(C(=O)c1ccc2ccccc2c1)C1OC(=O)c2ccccc21` (stereo not given), for which the TGI is 24.9 µM in the assay on SK-MEL-2 melanoma; 22.8 µM in the assay with M19-MEL melanoma; 40.1 µM with HCT-15 colon; 25.6 µM with SNB-75 CNS; 92.4 µM with TK-10 renal; 48.1 µM with CAKI-1 renal. The TGI in the assay with SNB-19 CNS is 35.3 µM; with SK-MEL-28 melanoma it was 32.5 µM.
Turning to `CN1C(=O)CC2(C)c3cc(O)cc(Br)c3N(C)C12` (stereo not given), the TGI with SK-MEL-2 melanoma, in the assay on M19-MEL melanoma, in the assay with HCT-15 colon, in the assay on SNB-75 CNS, in the assay on TK-10 renal and with SNB-19 CNS was greater than 100 µM each time. The compound also registered a TGI in the assay with SK-MEL-28 melanoma greater than 100 µM.
Turning to `Nc1nc(N)c(CCCCc2ccccc2)c(C=O)n1`, the TGI in the assay with SK-MEL-2 melanoma was 40.3 µM; in the assay on M19-MEL melanoma, 29.5 µM; with HCT-15 colon it was 45.4 µM; in the assay with SNB-75 CNS it was 38 µM; in the assay on TK-10 renal, 93 µM; with CAKI-1 renal, greater than 100 µM. Besides, the TGI in the assay on SNB-19 CNS was 38.3 µM; in the assay with SK-MEL-28 melanoma it was 32.3 µM.
In the case of `NC1N=Nc2ccccc21` (stereo not given), the TGI with SK-MEL-2 melanoma, with M19-MEL melanoma, in the assay on HCT-15 colon, in the assay with SNB-75 CNS, with TK-10 renal and in the assay with CAKI-1 renal was greater than 100 µM each time. For the same compound, the TGI in the assay on SNB-19 CNS and in the assay with SK-MEL-28 melanoma was greater than 100 µM in each case.
With `CC1CCCC(C(=O)CC2CC(=O)NC(=O)C2)C1=O` (stereo not given), the TGI in the assay on MDA-N, in the assay on SK-MEL-2 melanoma, with HCT-15 colon, with BT-549 breast, in the assay on SNB-75 CNS and in the assay with TK-10 renal was greater than 100 µM in each case. The TGI with CAKI-1 renal, in the assay on SNB-19 CNS and in the assay with SK-MEL-28 melanoma was greater than 100 µM in each case.
With `COC(=O)[C@H](CC(C)C)NC(=O)[C@H](Cc1ccccc1)N1CC2C=CC1C2` (stereo not given in full), the TGI in the assay on SK-MEL-2 melanoma, in the assay with M19-MEL melanoma, with HCT-15 colon, with SNB-75 CNS, in the assay with TK-10 renal and in the assay with CAKI-1 renal was greater than 100 µM in each case. In addition, the TGI with SNB-19 CNS and in the assay with SK-MEL-28 melanoma was greater than 100 µM throughout.
Consider `COC(=O)Cc1c([C@@]2(C)CCCC(C)(C)C2)ccc2c1C(=O)OC2`, for which the TGI in the assay on M19-MEL melanoma turned out to be 69.6 µM; in the assay on HCT-15 colon it was 24.1 µM; in the assay on SNB-75 CNS it was 28.7 µM; with TK-10 renal it was 59.3 µM; in the assay on SK-MEL-28 melanoma it was 34.9 µM.
As for `CC1(C)NC(=O)N(CCCCCCN2C(=O)NC(C)(C)C2=O)C1=O`, the TGI in the assay with SK-MEL-2 melanoma, in the assay with M19-MEL melanoma, with HCT-15 colon, with SNB-75 CNS, in the assay with TK-10 renal and with CAKI-1 renal was greater than 100 µM each time. For the same compound, the TGI in the assay with SNB-19 CNS and in the assay with SK-MEL-28 melanoma was greater than 100 µM in each case.
Take `Cc1cc(Cl)nc2ccc(Cc3ccc4nc(Cl)cc(C)c4c3)cc12`: the TGI in the assay on MDA-N is greater than 100 µM; in the assay on SK-MEL-2 melanoma, greater than 100 µM; in the assay on HCT-15 colon, greater than 100 µM; in the assay with BT-549 breast, greater than 100 µM; with SNB-75 CNS, 19.8 µM; with TK-10 renal, 59.7 µM. Moreover, the TGI with CAKI-1 renal, in the assay on SNB-19 CNS and in the assay on SK-MEL-28 melanoma was greater than 100 µM each time.

For the origin of these results see PubChem BioAssay (NCI).
